Results published in US6355799B1, “Substituted benzene compounds, process for their preparation, and herbicidal and defoliant compositions containing them” (ISK Americas Incorporated, priority 1997, dated 2002).

Experiments:
Assay type in all cases: in vivo
[1] = tested on: redroot pigweed (Amaranthus retroflexus, AMARE); experiment: Pre-emerge test, greenhouse herbicide activity screening; conditions: rating scale 0-100, 14 days after application
How it was run: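 Compounds in acetone were track-sprayed at 187 l/ha, 15–1000 g ai/ha, onto sandy loam pots. Pre-emerge seeds were sown one day before spraying, with surface watering afterwards. Post-emerge plants were at the 2–3 leaf stage and sprayed with 0.25% v/v non-ionic surfactant. Injury was rated 0–100 at 14 days.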

[2] = tested on: barnyardgrass (Echinochloa crus-galli, ECHCG); experiment: as above; conditions: rating scale 0-100, 14 days after application
How it was run: (§1)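 Fourteen days after spraying, crop and weed injury was graded visually from 0, no effect, to 100, every plant dead. Test substances were dissolved in acetone and applied at 15–1000 g ai/ha with a flat-fan nozzle. Application was either pre-emergence, one day after sowing, or post-emergence at the 2–3 leaf stage.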

[3] = tested on: common ragweed (Ambrosia artemisizfolia L., AMBEL); experiment: as above; conditions: rating scale 0-100, 14 days after application
How it was run: as §1

[4] = tested on: green foxtail (Setaria viridis, SETVI); experiment: as above; conditions: rating scale 0-100, 14 days after application
How it was run: as §1

[5] = tested on: ivyleaf morningglory (Ipomoea hederacea, IPOHE); experiment: as above; conditions: rating scale 0-100, 14 days after application
How it was run: as §1

[6] = tested on: johnsongrass (Sorghum halepense, SORHA); experiment: as above; conditions: rating scale 0-100, 14 days after application
How it was run: as §1

[7] = tested on: lambsquarters (Chenopodium album, CHEAL); experiment: as above; conditions: rating scale 0-100, 14 days after application
How it was run: as §1

[8] = tested on: large crabgrass (Digitaria sanguinalis, DIGSA); experiment: as above; conditions: rating scale 0-100, 14 days after application
How it was run: as §1

[9] = tested on: sicklepod (Cassia obtusifolia, CASOB); experiment: as above; conditions: rating scale 0-100, 14 days after application
How it was run: as §1

[10] = tested on: velvetleaf (Abutilon theophrasti, ABUTH); experiment: as above; conditions: rating scale 0-100, 14 days after application
How it was run: as §1

[11] = tested on: field corn (Zea mays L., var. Dekalb 535, CORN); experiment: Pre-emerge test, crop safety; conditions: rating scale 0-100, 14 days after application
How it was run: (§2)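 Rating: 0–100 visual injury, 14 DAA. Application: acetone, 187 l/ha, 15–1000 g ai/ha, flat-fan track sprayer with nozzle 40–45 cm above soil or canopy. Post-emerge runs used 0.25% v/v surfactant on 2–3 leaf plants.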

[12] = tested on: upland rice (Oryza sp., var. Tebonnet, RICE); experiment: Pre-emerge test, crop safety; conditions: rating scale 0-100, 14 days after application
How it was run: as §2

[13] = tested on: barnyardgrass (Echinochloa crus-galli, ECHCG); experiment: Post-emerge test, greenhouse herbicide activity screening; conditions: rating scale 0-100 (0 no damage, 100 complete death), 14 days after application
How it was run: (§3)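 Applied at 15–1000 g ai/ha from acetone in 187 l/ha spray volume. Post-emergence applications included 0.25% v/v non-ionic surfactant and reached plants sown 8–21 days before. Pre-emergence applications were incorporated by surface watering. Efficacy or crop damage was rated on a 0–100 scale after 14 days.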

[14] = tested on: common ragweed (Ambrosia artemisizfolia L., AMBEL); experiment: as above; conditions: rating scale 0-100 (0 no damage, 100 complete death), 14 days after application
How it was run: as §3

[15] = tested on: green foxtail (Setaria viridis, SETVI); experiment: as above; conditions: rating scale 0-100 (0 no damage, 100 complete death), 14 days after application
How it was run: as §3

[16] = tested on: ivyleaf morningglory (Ipomoea hederacea, IPOHE); experiment: as above; conditions: rating scale 0-100 (0 no damage, 100 complete death), 14 days after application
How it was run: as §3

[17] = tested on: lambsquarters (Chenopodium album, CHEAL); experiment: as above; conditions: rating scale 0-100 (0 no damage, 100 complete death), 14 days after application
How it was run: as §3

[18] = tested on: large crabgrass (Digitaria sanguinalis, DIGSA); experiment: as above; conditions: rating scale 0-100 (0 no damage, 100 complete death), 14 days after application
How it was run: as §3

[19] = tested on: redroot pigweed (Amaranthus retroflexus, AMARE); experiment: as above; conditions: rating scale 0-100 (0 no damage, 100 complete death), 14 days after application
How it was run: as §3

[20] = tested on: sicklepod (Cassia obtusifolia, CASOB); experiment: as above; conditions: rating scale 0-100 (0 no damage, 100 complete death), 14 days after application
How it was run: as §3

[21] = tested on: velvetleaf (Abutilon theophrasti, ABUTH); experiment: as above; conditions: rating scale 0-100 (0 no damage, 100 complete death), 14 days after application
How it was run: as §3

[22] = tested on: field corn (Zea mays L., var. Dekalb 535, CORN); experiment: Post-emerge test, crop safety; conditions: rating scale 0-100 (0 no damage, 100 complete death), 14 days after application
How it was run: as §1

[23] = tested on: upland rice (Oryza sp., var. Tebonnet, RICE); experiment: Post-emerge test, crop safety; conditions: rating scale 0-100 (0 no damage, 100 complete death), 14 days after application
How it was run: as §1

SMILES: CCCCOC(=O)C(Cl)Cc1c(OC)c(Cl)cc(F)c1-n1c(=O)cc(C(F)(F)F)n(C)c1=O (single isomer, unassigned) [14-8]
- Pre-emerge herbicidal activity, phytotoxicity rating AMARE ([1]; 63 g ai/ha): 100
- Pre-emerge herbicidal activity, phytotoxicity rating AMARE ([1]; 250 g ai/ha): 99
- Pre-emerge herbicidal activity, phytotoxicity rating ECHCG ([2]; 63 g ai/ha): 0
- Pre-emerge herbicidal activity, phytotoxicity rating ECHCG ([2]; 250 g ai/ha): 20
- Pre-emerge herbicidal activity, phytotoxicity rating AMBEL ([3]; 63 g ai/ha): 0
- Pre-emerge herbicidal activity, phytotoxicity rating AMBEL ([3]; 250 g ai/ha): 40
- Pre-emerge herbicidal activity, phytotoxicity rating SETVI ([4]; 63 g ai/ha): 0
- Pre-emerge herbicidal activity, phytotoxicity rating SETVI ([4]; 250 g ai/ha): 0
- Pre-emerge herbicidal activity, phytotoxicity rating IPOHE ([5]; 63 g ai/ha): 0
- Pre-emerge herbicidal activity, phytotoxicity rating IPOHE ([5]; 250 g ai/ha): 0
- Pre-emerge herbicidal activity, phytotoxicity rating SORHA ([6]; 63 g ai/ha): 0
- Pre-emerge herbicidal activity, phytotoxicity rating SORHA ([6]; 250 g ai/ha): 0
- Pre-emerge herbicidal activity, phytotoxicity rating CHEAL ([7]; 63 g ai/ha): 70
- Pre-emerge herbicidal activity, phytotoxicity rating CHEAL ([7]; 250 g ai/ha): 95
- Pre-emerge herbicidal activity, phytotoxicity rating DIGSA ([8]; 63 g ai/ha): 40
- Pre-emerge herbicidal activity, phytotoxicity rating DIGSA ([8]; 250 g ai/ha): 100
- Pre-emerge herbicidal activity, phytotoxicity rating CASOB ([9]; 63 g ai/ha): 0
- Pre-emerge herbicidal activity, phytotoxicity rating CASOB ([9]; 250 g ai/ha): 0
- Pre-emerge herbicidal activity, phytotoxicity rating ABUTH ([10]; 63 g ai/ha): 0
- Pre-emerge herbicidal activity, phytotoxicity rating ABUTH ([10]; 250 g ai/ha): 40
- Pre-emerge phytotoxicity rating, crop damage CORN ([11]; 63 g ai/ha): 0
- Pre-emerge phytotoxicity rating, crop damage CORN ([11]; 250 g ai/ha): 0
- Pre-emerge phytotoxicity rating, crop damage RICE ([12]; 63 g ai/ha): 0
- Pre-emerge phytotoxicity rating, crop damage RICE ([12]; 250 g ai/ha): 0
- Post-emerge Herbicidal Activity, phytotoxicity rating ECHCG ([13]; Rate 63 g ai/ha): 95
- Post-emerge Herbicidal Activity, phytotoxicity rating ECHCG ([13]; Rate 250 g ai/ha): 99
- Post-emerge Herbicidal Activity, phytotoxicity rating AMBEL ([14]; Rate 63 g ai/ha): 10
- Post-emerge Herbicidal Activity, phytotoxicity rating AMBEL ([14]; Rate 250 g ai/ha): 50
- Post-emerge Herbicidal Activity, phytotoxicity rating SETVI ([15]; Rate 63 g ai/ha): 10
- Post-emerge Herbicidal Activity, phytotoxicity rating SETVI ([15]; Rate 250 g ai/ha): 40
- Post-emerge Herbicidal Activity, phytotoxicity rating IPOHE ([16]; Rate 63 g ai/ha): 30
- Post-emerge Herbicidal Activity, phytotoxicity rating IPOHE ([16]; Rate 250 g ai/ha): 95
- Post-emerge Herbicidal Activity, phytotoxicity rating CHEAL ([17]; Rate 63 g ai/ha): 70
- Post-emerge Herbicidal Activity, phytotoxicity rating CHEAL ([17]; Rate 250 g ai/ha): 99
- Post-emerge Herbicidal Activity, phytotoxicity rating DIGSA ([18]; Rate 63 g ai/ha): 40
- Post-emerge Herbicidal Activity, phytotoxicity rating DIGSA ([18]; Rate 250 g ai/ha): 85
- Post-emerge Herbicidal Activity, phytotoxicity rating AMARE ([19]; Rate 63 g ai/ha): 90
- Post-emerge Herbicidal Activity, phytotoxicity rating AMARE ([19]; Rate 250 g ai/ha): 100
- Post-emerge Herbicidal Activity, phytotoxicity rating CASOB ([20]; Rate 63 g ai/ha): 30
- Post-emerge Herbicidal Activity, phytotoxicity rating CASOB ([20]; Rate 250 g ai/ha): 80
- Post-emerge Herbicidal Activity, phytotoxicity rating ABUTH ([21]; Rate 63 g ai/ha): 60
- Post-emerge Herbicidal Activity, phytotoxicity rating ABUTH ([21]; Rate 250 g ai/ha): 100
- Post-emerge phytotoxicity rating CORN (crop damage) ([22]; Rate 63 g ai/ha): 40
- Post-emerge phytotoxicity rating CORN (crop damage) ([22]; Rate 250 g ai/ha): 80
- Post-emerge phytotoxicity rating RICE (crop damage) ([23]; Rate 63 g ai/ha): 5
- Post-emerge phytotoxicity rating RICE (crop damage) ([23]; Rate 250 g ai/ha): 30
